Experimental data published in patent US20100028319A1, “COMPOSITION FOR PREVENTION OR TREATMENT OF DIABETES” (KANEKA CORPORATION, priority 2007, published 2010).

Key:
[1] = system: HIT-T15 cells; test: Glucose-responsive insulin secretion in HIT-T15 cells (ELISA); assay type: cell-based; conditions: 50 μg/ml reduced coenzyme A; 20 mM glucose load; supernatant collected at intervals of 30 minutes; FIG. 3
Procedure: HIT-T15 cells were seeded in the wells of a 96-well plate at a density of 50,000 cells/100 μl medium/well. An RPMI 1640 medium (GIBCO) containing 1% fetal bovine serum and 6 mM glucose was used at this time. Twenty-four hours later, the medium of each well was replaced with an RPMI 1640 medium (containing 1% fetal bovine serum and 6 mM glucose) in which reduced coenzyme A was added to a final concentration of 50 μg/ml. Another 24 hours later, the medium of each well was replaced with an RPMI 1640 medium (containing 10% fetal bovine serum and 6 mM glucose) in which reduced coenzyme A was added to a final concentration of 50 μg/ml. Yet another 24 hours later, the wells were washed with Krebs-Ringer buffer containing 10 mM of HEPES (KRB-HEPES), and further added with 100 μl of KRB-HEPES, followed by culturing for one hour. Next, after removal of the KRB-HEPES, the wells were washed with the same buffer. To the wells was added 100 μl of KRB-HEPES containing 20 mM of glucose, and the supernatant liquid was collected at intervals of 30 minutes for storing frozen. At a later date, the insulin amount in the supernatant liquid samples was assayed using ELISA (Lebis).

[2] = system: HIT-T15 cells; test: Effects on ATP production (intracellular ATP level, ATPLite) in HIT-T15 cells; assay type: cell-based; conditions: 24 h + 24 h cultivation
Procedure: Ham'F12 medium (GIBCO) containing 200 units of penicillin (GIBCO), […] streptomycin (GIBCO), and 10% fetal bovine serum (GIBCO) is normally used as a growth medium for cultivating HIT-T15 cells.
A growth medium containing a fetal bovine serum at a concentration of 0.5% was placed in each well of a 96-well microplate, and HIT-T15 cells were seeded in the wells at a density of 1×10^4 cells/well. Next day, the growth medium of each well was replaced with a growth medium containing 0.5% fetal bovine serum, in which reduced coenzyme A was further added to a final concentration of 6.25, 12.5, 25, 50 or 100 μg/ml. Twenty-four hours later, the medium of each well was removed and replaced with a growth medium (containing 10% fetal bovine serum) in which reduced coenzyme A was added at the same concentration as mentioned above, and cultivation was continued for another 24 hours. After washing three times with PBS, the intracellular ATP level was measured using ATPLite (PerkinElmer).
A growth medium containing a fetal bovine serum at a concentration of 0.5% was placed in each well of a 96-well microplate, and the cells were seeded in the wells at a density of 1×10^4 cells/well. Next day, the growth medium of each well was replaced with a growth medium containing 0.5% fetal bovine serum, in which reduced coenzyme A or three kinds of coenzyme A precursors (pantothenic aid, pantethine, cystein) or oxidized coenzyme A was added. The coenzyme A precursors and the oxidized coenzyme A were added at the same molar concentrations as that of the reduced coenzyme A. Twenty-four hours later, the medium of each well was removed and replaced with a growth medium (containing 10% fetal bovine serum) in which reduced coenzyme A, the coenzyme A precursor, or oxidized coenzyme A was added at the same concentration as mentioned above, and cultivation was continued for another 24 hours. After washing three times with PBS, the intracellular ATP level was measured using ATPLite (PerkinElmer).

[3] = same molar concentrations, FIG. 2

`CC(C)(COP(=O)(O)OP(=O)(O)OC[C@H]1O[C@@H](n2cnc3c(N)ncnc32)[C@H](O)[C@@H]1OP(=O)(O)O)[C@@H](O)C(=O)NCCC(=O)NCCS` [reduced coenzyme A] was tested. Which “glucose-responsive insulin secretion in HIT-T15 cells” value [1] did it give?
Its value is “significantly promoted”.

What about the “intracellular ATP level in HIT-T15 cells” value ([2]; reduced coenzyme A added at 6.25, 12.5, 25, 50 or 100 μg/ml, FIG. 1) of the same compound?
Its value is “significantly increased”.

And the “ATP production in comparison to addition of oxidized coenzyme A” value [2, 3]?
Its value is “promoted ATP production significantly in comparison to addition of oxidized coenzyme A”.

And the “ATP production in comparison to additions of the precursors (pantothenic acid, pantethine, cystein) and a mixture of the three precursors” value [2, 3]?
Its value is “promoted ATP production significantly in comparison to additions of the precursors”.
